Test results: article PMC6624297 (Cell Death & Disease, 2019)

Assays:
[1] = tested on: HepG2 cells; assay: MTT assay HepG2; format: cell-based; conditions: Homo sapiens, 24h of treatment, mean ± SD
Procedure: (§1) Details are given in Supplementary Materials and Methods. Using probability unit and weighted regression method to calculate the IC50 value of compounds.
(§2) Total cells in the logarithmic growth phase were collected, digested using 0.25% pancreatic enzymes, and then diluted into single-cell suspensions using phosphate-buffered solution (PBS). These cells were seeded into 96-well plates at 4× 10^3-5× 10^3 cells per well (100 µL per well) and then A549, H460, OVCAR-3, SGC7901, MDA-MB-231, HCT116 and HepG2 were cultured at 37°Cin an incubator containing 5% CO2. After cell complete attachment, 100 µL of different concentrations of compounds (0.625 μM, 1.25 μM, 2.5μM, 5 μM, 10 μM) were added to the cells after the nutrient solution in each well was discarded, while no compound except 0.1% DMSO was added to cells in the control group; at the same time, each concentration was set up to 5 wells. In addition, 5 wells in each 96-well plate only received 100 µL of nutrient solution as a blank control. The plates were taken out after the cells were incubated with compounds for 24 h, and 20 µL of MTT solution (5 mg/mL) (Wuhan Boster Biotechnology Limited Company, Wuhan, China; item No. AR1156) was added into all the wells. After another time of incubation for 4 h at 37 °C, the nutrient solution in each well was discarded slowly, and 150 µL of DMSO was added to each well. The plates were shaken on a shaking table for 20 min. When the crystals were fully dissolved, the blank wells were used to zero the plate reader. The optical density (OD) of each well was detected at 490 nm. The IC50 value was determined as the concentration of the inhibitor that caused 50% inhibition. Using probability unit and weighted regression method to calculate the IC50 value of compounds.

[2] = tested on: LO2 cell line; assay: Selectivity index against LO2; format: cell-based; conditions: SI = CC50/IC50
[3] = tested on: H460 cells; assay: MTT assay H460; format: cell-based, human
Procedure: as §1
as §2, with “After another time of incubation for 4 h at 37 °C, the nutrient solution in each well was discarded slowly, and 150 µL of DMSO was added to each well. The plates were shaken on a shaking table for 20 min.” left out, “The IC50 value was determined as the concentration of the inhibitor that caused 50% inhibition. Using probability unit and weighted regression method to calculate the IC50 value of compounds.” left out

[4] = tested on: A549 cells; assay: Annexin V/PI staining flow cytometry, A549; format: cell-based, human; conditions: 24 h
Procedure: The density of the A549 cells and H460 in the logarithmic growth phase was adjusted to 1 × 10^6 cells/mL, and a total of 1 mL of cell suspension and 1 mL of L14e at different concentrations were added into each well with the final compound L14e concentration in each group as 0, 0.5, 1.0, and 1.5 μM. Details are given in Supplementary Materials and Methods.
The density of the A549 cells and H460 in the logarithmic growth phase was adjusted to 1 × 10^6 cells/mL, and then the cell suspension was seeded into a 6-well plate (Becton Dickinson and Company, USA). A total of 1 mL of cell suspension and 1 mL of compound L14e at different concentrations were added into each well with the final compound L14e concentration in each group as 0 μM, 0.5 μM, 1.0 μM, and 1.5μM. After cells were incubated for 24 h at 37 °C, 1 mL of cell suspension per well was collected and centrifuged at 1000 r/min for 10 min at 4°C, and the supernatant was removed. Then, 1 mL of cold PBS was added to the cell pellet, and was shaken lightly to re-suspend the cells. The cells were centrifuged at 1000 r/min at 4 °C for 10 min, and the supernatant was removed. These steps were repeated twice. The cells were re-suspended in 150µL of PBS, 10 µL of fluorescein isothiocyanate (FITC)-labeled Annexin V (Annexin V-FITC) (Promega Corporation, USA) and 5 µL of PI (Promega Corporation, USA) were added. The mixture was gently mixed and incubated in the dark at room temperature for 10 min then stained cells were analyzed using flow cytometry to test the levels of apoptotic cells (Becton Dickinson and Company, USA; FACS Calibur).

[5] = tested on: VEGF; assay: VEGF secretion ELISA in A549 supernatant; format: cell-based, human; conditions: ELISA of cell supernatant
Procedure: Since the inhibitory effect of the compound on A549 cells was stronger than that of H460, the A549 cells were treated with different concentrations of L14e. Taking the supernatant of the cells to detect the change of VEGF content by ELISA assays, and the effect of the supernatant on the formation of endothelial cells was detected.

[6] = tested on: A549 tumor xenograft; assay: A549 tumor xenograft model; format: in vivo, BABL/c female nude mice; conditions: 80 mg/kg, 3 weeks
Procedure: Five-week-old immunodeficient BABL/c female nude mice, weighing 18 to 20 g, were purchased and maintained under specific pathogen-free conditions. They were implanted subcutaneously with 1 × 10^7 A549 cells. Tumor sizes were assessed using the two largest perpendicular axes. Tumor volume was calculated using the formula V = (a × b^2)/2, where a is length and b is width. The tumor volume was measured every 3 days. When tumor volumes reached 50 mm^3, the mice were randomized to drug-treated or vehicle groups (five mice per group). Tumor growth was monitored every 3 days using a Vernier caliper. […] All animal studies were conducted with the approval of the Laboratory Animal Welfare and Ethical Committee of China Medical University.
After incubation with hydrogen peroxide, the slides were washed with PBS and then incubated with 0.4% Triton X-100. The sections were incubated with blocking solution (Dako Protein Block, Dako, Glostrup, Denmark) for 30 min at room temperature after washing with PBS. The sections were further incubated with primary antibodies (Ki67 and cleaved caspase 3 [all from Cell Signaling Technology], diluted at 1:200) overnight at 4 °C, washed with PBS several times, incubated with the corresponding biotinylated secondary antibodies (diluted at 1:500), and then washed with PBS multiple times. After adding avidin-biotin complexes (Vector Laboratories), the sections were visualized using diaminobenzidine (DAB) detection reagent (Enzo Life Sciences, Farmingdale, NY, USA) and mounted with a mounting solution (Vector Laboratories, Burlingame, CA, USA).

## O=C(Nc1cccc(Cl)c1)Nc1ccccc1NS(=O)(=O)c1c[nH]c(=O)[nH]c1=O [Compound L14e, N'-(3-chlorophenyl)-2-(2,4-dihydroxypyrimidine-5-sulfonamido)phenyl urea]
[1]
  IC50: 1360 ± 130 nM
[2]
  SI (Selectivity index) LO2: 12.58
[3]
  anti-proliferative potency relative to PTX, H460: nearly five times higher
[3]; Fig. 2B(b)
  inhibition of proliferation of H460 cells compared with PTX and compound 10l: significantly more inhibitory
[4]; A549, 0.5 μM
  apoptotic rate: 19.3%
  late apoptosis rate (Q2, Annexin V [+] PI [+]): 17.7%
[4]; A549, 1.0 μM
  late apoptosis rate (Q2, Annexin V [+] PI [+]): 27.5%
[4]; A549, 1.5 μM
  apoptotic rate: 43.5%
  late apoptosis rate (Q2, Annexin V [+] PI [+]): 37.1%
[5]
  secretion of VEGF in A549 cells: significantly reduce the secretion of VEGF
[6]
  changes in body weight in xenograft mice: negligible changes in body weight
  expression of Ki67 in tumors (IHC): significantly decreased
  expression of cleaved-caspase-3 in tumors (IHC): significantly increased
[6]; intraperitoneal injection
  growth of xenograft tumors: significantly suppressed the growth of xenograft tumors
  tumor growth inhibition (TGI): 84.86
